Measured values taken from patent publication US10975069B2, “Sigma-2 receptor ligand drug conjugates as antitumor compounds, methods of synthesis and uses thereof” (priority 2014, dated 2021).
Where two headings read alike, the source gives them in different places.

Key:
[1] = system: AsPC-1; assay: Viability assay (CELLTITER-GLO), 24 hours treatment; format: cell-based, human
Method: (§1) In these experiments, viability assays after 24 hours treatment of human and murine pancreatic cancer cell lines and synovial sarcoma cell lines with SW V-49s or its parent compounds SV119 and Erastin, both singly and in combination, were performed. […] In comparison.
(§2) Cytotoxicity of the drugs was evaluated by CELLTITER-GLO®. Luminescent cell viability assay (Promega, Madison, Wis.). Pancreatic cell lines were plated at a density of 2×10^4/well in white 96 well, clear bottom plates for 24 hours prior to treatment. Drugs were dissolved in DMSO and serially diluted in culture medium to achieve the final concentration of DMSO less than 1%. Cells were then treated for 24 hours and 100 μl of the CELLTITER-GLO® reagent was added to each well. The contents of the plates were mixed using an orbital shaker and subsequently incubated for 10 minutes at room temperature. Luminescence signal was measured using a multi-mode microplate reader (BioTek instruments. Winooski, Vt.). Different drug concentrations were assayed in triplicate. To evaluate the efficacy of the drugs, IC50 of the compounds was calculated on a panel of human and mouse derived pancreatic cancer cell lines in vitro. Cells were treated for 24 hours with SW V-49s, SV119, Erastin, and an equimolar mixture of SV119 and Erastin, then CELLTITER-GLO® viability assay was performed.
AsPC-1 and SYO-1 cells were plated in 96 well plate overnight then treated with similar concentrations of Erastin for 24 hours. Viability assay was performed after 24 hours. […] (p<0.0001), (FIG. 10).

[2] = system: KCKO cells; assay: as above; format: cell-based, murine
Method: as §1, §2

[3] = system: caspase 3/7; assay: CASPASE-GLO caspase 3/7 assay in AsPC-1 cells; format: cell-based, human; conditions: for caspase activity compared to 4 μM SW V-49s: 50 μM, 24 hr., FIG. 5A
Description: In these experiments, the inventors investigated whether compounds of the present teachings were lethal towards pancreatic cancer cells by triggering an apoptosis cell death pathway, a ferroptosis cell death pathway, or a combination thereof. The inventors thus performed assays for caspase 3/7 as an indicator of apoptotic cell death, and assays for the generation of reactive oxygen species (ROS) as an indicator of ferropoptotic cell death. […] In FIG. 5B, results are shown for Caspase-Glo® (Promega) assays of Aspc-1 cells treated with 8 μM SW V-49s, 8 μM Erastin, 8 μM SV119, or 8 μM of an equimolar mixture of Erastin and SV 119, for 7 hrs.
In these experiments, caspase-3/7.8 and 9 activities were measured In AsPC-1 cells using the corresponding CASPASE-GLO® Assay according to the manufacturer's instructions (Promega, Madison. Wis.). This assay is based on a caspase-specific substrate, which is cleaved to release aminoluciferin, a substrate of luciferase that results in caspase-specific luminescence signals. Cells were seeded at a density of 2×10^4 in white 96-well, clear bottom plates for 24 hours before treatment with 4 μM of compounds. The contents were then mixed using a plate shaker for 30 seconds, thereafter incubated at room temperature for 90 minutes. Luminescence signal was measured using a multi-mode microplate reader (BioTek). Assay was performed in triplicates, and the caspase activity of DMSO was considered as a base line.
The present inventors have shown that SV119 induces caspase-3 dependent apoptosis (Kashiwagi, H., el al. Mol Cancer 2007; 6:48). In these experiments, AsPC-1 cells were treated with 4 μM of SW V-49s. SV119, Erastin, and equimolar mixture of SV119 and Erastin for 24 hours. Using CASPASE-GLO® Assays, Caspase-3 level was measured to assess the activity of SW 119 domain of the SW V-49s compound and Caspase-8 and 9 levels were measured to identify which apoptotic pathway was involved.

SMILES | death of cells ([1]; 40 μM, 24 hours, AsPC-1 cells, FIG. 10) [%] | IC50 ([1]; Homo sapiens, ASPC1, 24 h, read-out: IC50 ± SEM, AsPC-1) [µM] | IC50 ([2]; Mus musculus, 24 h, read-out: IC50 ± SEM, KCKO) [µM] | caspase activity compared to 4 μM SW V-49s ([3]; AsPC-1 cells) | IC50 ([1]; 24 hours, mean ± SEM, n ≥ 3, read-out: IC50 ± SEM, AsPC-1) [µM] | IC50 ([2]; 24 hours, mean ± SEM, n ≥ 3, read-out: IC50 ± SEM, KCKO) [µM] | IC50 ([1]; Homo sapiens, ASPC1, 24 h, read-out: IC50 concentration) [µM] | IC50 ([1]; Homo sapiens, ASPC1, 24 hours, mean ± SEM, n ≥ 3, read-out: IC50 ± SEM, AsPC-1) [µM] | IC50 ([2]; Mus musculus, 24 h, read-out: IC50 concentration) [µM] | IC50 ([2]; Mus musculus, 24 hours, mean ± SEM, n ≥ 3, read-out: IC50 ± SEM, KCKO) [µM] | caspase-3 fold above baseline ([3]; 4 μM, 24 hours, AsPC-1, DMSO baseline, FIG. 12A) [fold] | increase in caspase 3/7 activity compared to all controls ([3]; 8 μM, 7 hrs, AsPC-1 cells, FIG. 5B)
CCOc1ccccc1-n1c(C(C)N2CCN(C(=O)COc3ccc(Cl)cc3)CC2)nc2ccccc2c1=O (stereo not shown) [Erastin] | 2 | > 150 | > 150 | far less caspase activity |  |  |  |  |  |  |  | 
COc1ccc(C)cc1NC(=O)OC1C[C@H]2CCC[C@@H](C1)N2CCCCCCN (stereo partly shown) [SV119, reference compound] |  |  |  | far less caspase activity | 111 ± 8.3 | 68.7 ± 10.1 |  |  |  |  |  | 
CCOc1ccccc1-n1c(CN2CCN(C(=O)COc3ccc(CNCCCCCCN4C5CCCC4CC(OC(=O)Nc4cc(C)ccc4OC)C5)cc3)CC2)nc2ccccc2c1=O.O=C(O)C(=O)O (stereo not shown) [SW V-49s] |  |  |  |  |  |  | 3 | 3.2 ± 0.3 | 2.2 | 2.4 ± 0.2 | 3.4 | approximately 3 fold
